Data taken from patent US20180230166A1 (Merck Sharp & Dohme Corp., priority 2015, published 2018).

Assays:
[1] = Phase III outcomes trial, cited from earlier work
[2] = cited from earlier work
[3] = torcetrapib and atorvastatin concomitantly, compared with atorvastatin alone; cited from earlier work
[4] = molecular target: T1, endogenous CETP from serum (Homo sapiens, UniProt P11597); experiment: RTA assay in 95% human serum (95% RTA), CETP-catalyzed CE and TG transfer; format: biochemical; details: RTA assay in 95% human serum; read-out: IC50
T1 construct: yielding a concentration of approximately 15 nM endogenous CETP in the assay; from tissue; host or cells: human serum (95% of the assay volume)
T1 sequence (P11597 18-493): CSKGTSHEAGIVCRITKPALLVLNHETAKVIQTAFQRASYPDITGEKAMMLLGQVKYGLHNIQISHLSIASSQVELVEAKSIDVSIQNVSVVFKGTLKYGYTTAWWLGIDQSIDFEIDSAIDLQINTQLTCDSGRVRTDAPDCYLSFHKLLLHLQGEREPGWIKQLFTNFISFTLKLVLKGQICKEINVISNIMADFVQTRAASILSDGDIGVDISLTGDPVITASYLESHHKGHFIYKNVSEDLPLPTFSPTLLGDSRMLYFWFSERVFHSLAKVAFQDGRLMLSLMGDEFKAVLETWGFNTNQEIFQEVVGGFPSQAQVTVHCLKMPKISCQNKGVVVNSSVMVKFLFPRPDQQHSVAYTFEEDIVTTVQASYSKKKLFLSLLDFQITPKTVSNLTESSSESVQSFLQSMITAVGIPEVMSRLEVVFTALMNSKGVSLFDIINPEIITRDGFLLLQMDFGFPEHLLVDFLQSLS
Procedure: Reagents and sources are: [3H] cholesteryl oleate (GE #TRK.886), [3H] Triolein (Perkin-Elmer NET-431), Butylated hydroxyl toluene (Aldrich, #D4740-4), DOPC (Sigma, #P6354), Sodium Bromide (Fisher scientific #S255-500), PEG 8000 (Fisher, #BP233-1), and human HDL (Intracel Corp #RP-036).
Both assays measure the transfer of [3H] cholesteryl oleate or [3H] triolein from exogenous LDL to HDL.
Radiolabeled donor particles are generated by first combining 100 μl of 200 μM butylated hydroxyl toluene in CHCl3, 216 μL of 21.57 mM DOPC in EtOH, and either 500 μCi [3H]-triolein (Perkin Elmer #NET-431) or 500 μCi [3H]-cholesteryl oleate (GE #TRK886) in a glass tube. Reagents are mixed, dried under nitrogen, and then resuspended in 2 mL of 50 mM Tris, 27 μM EDTA at pH 7.4. After a brief vortex, the solution is sonicated until clear and mixed with 20 mL of fresh human serum. The mixture is incubated overnight at 37° C. The [3H] labeled LDL substrate is separated at 1.063 g/ml density by sequential ultracentrifugal flotation in NaBr according to the method of Havel, Eder, et al., 1955, and Chapman, Goldstein, et al., 1981. Once isolated the particles are dialyzed 3× in CETP buffer (50 mM Tris, pH 7.4, 100 mM NaCl, 1 mM EDTA). Human HDL is purchased from Intracel and used as the acceptor particles.
Transfer assays are performed in a 96-well v-bottom polypropylene plate. […] 1 μL of each test compound diluted in DMSO is added to 47 μL of assay cocktail per well and incubated at 37° C. for 1 hour. To initiate the transfer reaction, 2 μL radiolabeled LDL is added. After an additional 60 min of incubation at 37° C., the transfer action is terminated by precipitation of LDL with an equal volume of 20% W/V PEG 8000. The plates are centrifuged at 2000 rpm for 30 minutes at 4° C. A 40 μL aliquot of the HDL-containing supernatant is transferred to a Packard Optiplate™ with 200 μL of MicroScint™ 20. After mixing, plates are counted by liquid scintillation. Counts present in the supernatant for blanks (wells containing only HDL acceptor, CETP buffer and DMSO) are subtracted from those containing test compounds and used to correct for non-specific transfer.
For the transfer assay using endogenous CETP from serum (95% RTA), the same procedure is used except that human serum is added such that a final concentration of serum of 95% of the total assay volume is achieved, yielding a concentration of approximately 15 nM endogenous CETP in the assay. This is then combined with HDL and CETP buffer and the reaction proceeds as above and is terminated as described.
Comparison of the counts of samples with inhibitors to an uninhibited (DMSO only) positive control yield a percent inhibition. A plot of percent inhibition vs. log of inhibitor concentration, fit to a Sigmoidal 4 parameter equation is used to calculate IC50.
Starting materials are commercially available or are made using known procedures or as shown below. The examples may be synthesized using the general schemes provided below. The data reported for the examples below were obtained using the RTA assay in 95% human serum. […] When compounds of Formula I are mentioned herein, such compounds include compounds defined generically by Formula I and also the specific examples disclosed herein.

[5] = patients on anacetrapib with baseline statin therapy, compared with patients treated with just a statin

SMILES: CCC(CC)CC1(C(=O)Nc2ccccc2SC(=O)C(C)C)CCCCC1 [dalcetrapib]
- clinical benefit (interim data) ([1]; terminated early): did not show a clinical benefit
- safety issues [1]: no safety issues detected

SMILES: COc1cc(F)c(C(C)C)cc1-c1ccc(C(F)(F)F)cc1CN1C(=O)O[C@H](c2cc(C(F)(F)F)cc(C(F)(F)F)c2)[C@@H]1C [anacetrapib]
- decrease of LDL-C [2, 5]: 40%
- increase of HDL-C [2, 5]: 138%
- increase in mortality ([2]; patients treated with anacetrapib, DEFINE trial): unlikely

SMILES: CCOC(=O)N1c2ccc(C(F)(F)F)cc2[C@@H](N(Cc2cc(C(F)(F)F)cc(C(F)(F)F)c2)C(=O)OC)C[C@H]1CC [torcetrapib]
- incidence of mortality [3]: higher incidence of mortality

SMILES: COc1ncc(-c2ccc(C(=O)O)cc2C)cc1-c1ccc(C(F)(F)F)cc1[C@@H]1CC[C@H]2[C@@H](c3cc(F)cc(C(F)(F)F)c3)CC(=O)N12 [Example 19, 4-{5-[2-{(3S,7R,7aS)-7-[3-fluoro-5-(trifluoromethyl)phenyl]-5-oxohexahydro-1H-pyrrolizin-3-yl}-4-(trifluoromethyl)phenyl]-6-methoxypyridin-3-yl}-3-methylbenzoic acid]
- IC50 [4]: 2.88 µM

SMILES: COc1ncc(-c2ccc(C(=O)O)cc2C)cc1-c1ccc(C(F)(F)F)cc1[C@@H]1CC[C@H]2[C@@H](c3cc(C(F)(F)F)cc(C(F)(F)F)c3)SC(=O)N12 [Example 4, 4-{5-[2-{(1R,5S,7aS)-1-[3,5-bis(trifluoromethyl)phenyl]-3-oxotetrahydro-1H-pyrrolo[1,2-c][1,3]thiazol-5-yl}-4-(trifluoromethyl)phenyl]-6-methoxypyridin-3-yl}-3-methylbenzoic acid]
- IC50 [4]: 0.559 µM
